Biological target: T1, CDK2 (Homo sapiens, UniProt P24941)
T1 construct: High-Throughput Measurement of Cellular Endogenous CDK2; endogenous in cells; host or cells: OVCAR3
Assay: Inhibition of CDK2: phospho-Rb (S807/811) HTRF measurement in OVCAR3 cells, 24 h
Format: cell-based
Details: 24 h compound treatment, read-out: pRB_OVCAR3_24h
In short: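 OVCAR3 cells, seeded overnight, were exposed to compounds at 0.3 to 10,000 nM for 24 h, then lysed. Rb S807/811 phosphorylation read by HTRF (665/620 nm ratio) after 4 h detection at room temperature; data normalized to DMSO and IC50 from four-parameter logistic fit.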

IC50, > 2500 nM:
Cn1nc(N2CCC(=O)NC2=O)c2ccc(C3CCN(CC4CCN(c5cccc(S(=O)(=O)N6CC7CCC(C6)C7Nc6ncc(Cl)cn6)c5)CC4)CC3)cc21 (racemic) [Example 229, Rac-1-(6-(1-((1-(3-(((1R,5S,8s)-8-((5-chloropyrimidin-2-yl)amino)-3-azabicyclo[3.2.1]octan-3-yl)sulfonyl)phenyl)piperidin-4-yl)methyl)piperidin-4-yl)-1-methyl-1H-indazol-3-yl)dihydropyrimidine-2,4(1H,3H)-dione]
CC(C)Oc1cnc(NC2CCN(S(=O)(=O)c3cccc(N4CCC(CN5CCC(c6ccc7c(N8CCC(=O)NC8=O)nn(C)c7c6)CC5)CC4)c3)CC2)nc1 [Example 253, 1-(6-(1-((1-(3-((4-((5-isopropoxypyrimidin-2-yl)amino)piperidin-1-yl)sulfonyl)phenyl)piperidin-4-yl)methyl)piperidin-4-yl)-1-methyl-1H-indazol-3-yl)dihydropyrimidine-2,4(1H,3H)-dione]
Cn1nc(N2CCC(=O)NC2=O)c2ccc(C3CCN(Cc4cccc(S(=O)(=O)N5CCC(Nc6ncc(C(C)(F)F)cn6)CC5)c4)CC3)cc21 [Example 17, 1-(6-(1-(3-((4-((5-(1,1-difluoroethyl)-pyrimidin-2-yl)amino)piperidin-1-yl)sulfonyl)benzyl)piperidin-4-yl)-1-methyl-1H-indazol-3-yl)dihydropyrimidine-2,4(1H,3H)-dione]
Cn1nc(N2CCC(=O)NC2=O)c2ccc(N3CCN(Cc4cccc(S(=O)(=O)[C@H]5CC[C@H](Nc6ncc(Cl)cn6)CC5)c4)CC3)cc21 [Example 67, 1-(6-(4-(3-(((1r,4r)-4-((5-chloropyrimidin-2-yl)amino)cyclohexyl)sulfonyl)benzyl)piperazin-1-yl)-1-methyl-1H-indazol-3-yl)dihydropyrimidine-2,4(1H,3H)-dione]

IC50, 500 to 2500 nM:
Cn1nc(N2CCC(=O)NC2=O)c2ccc(C#CCN3CCN(c4cccc(S(=O)(=O)N5CCC(Nc6ncc(C(F)(F)F)cn6)CC5)c4)CC3)cc21 [Example 230, 1-(1-methyl-6-(3-(4-(3-((4-((5-(trifluoromethyl)pyrimidin-2-yl)amino)piperidin-1-yl)sulfonyl)phenyl)piperazin-1-yl)prop-1-yn-1-yl)-1H-indazol-3-yl)dihydropyrimidine-2,4(1H,3H)-dione]
O=C1CCN(c2nn(CC(F)(F)F)c3cc(C4CCN(Cc5cccc(S(=O)(=O)N6CCC(Nc7ncc(Cl)cn7)CC6)c5)CC4)ccc23)C(=O)N1 [Example 21]
Cn1nc(N2CCC(=O)NC2=O)c2ccc(N3CC4CC(C3)N4CC3CCN(c4cccc(S(=O)(=O)N5CCC(Nc6ncc(C(F)(F)F)cn6)CC5)c4)CC3)cc21 [Example 126, 1-(1-methyl-6-(6-((1-(3-((4-((5-(trifluoro-methyl)pyrimidin-2-yl)amino)piperidin-1-yl)sulfonyl)phenyl)piperidin-4-yl)methyl)-3,6-diazabicyclo[3.1.1]heptan-3-yl)-1H-indazol-3-yl)dihydropyrimidine-2,4(1H,3H)-dione]

IC50, 1 to 100 nM:
Cn1nc(N2CCC(=O)NC2=O)c2ccc(C3CCN(Cc4ccc(S(=O)(=O)N5CCC(Nc6ncc(Cl)cn6)CC5)cc4)CC3)cc21 [Example 63, 1-(6-(1-(4-((4-((5-chloropyrimidin-2-yl)amino)piperidin-1-yl)sulfonyl)benzyl)-piperidin-4-yl)-1-methyl-1H-indazol-3-yl)dihydropyrimidine-2,4(1H,3H)-dione]

IC50, 100 to 500 nM:
O=C1CCN(c2ccc(N3CCN(CC4CCN(c5cccc(S(=O)(=O)N6CCC(Nc7ncc(Cl)cn7)CC6)c5)CC4)CC3)cc2)C(=O)N1 [Example 109, 1-(4-(4-((1-(3-((4-((5-chloropyrimidin-2-yl)amino)piperidin-1-yl)sulfonyl)phenyl)-piperidin-4-yl)methyl)piperazin-1-yl)phenyl) dihydropyrimidine-2,4(1H,3H)-dione]
O=C1CCC(NC(=O)c2ccc(C3CCN(CC4CCN(c5cccc(S(=O)(=O)N6CCC(Nc7ncc(C(F)(F)F)cn7)CC6)c5)CC4)CC3)cn2)C(=O)N1 (stereo not shown) [Example 225, N-(2,6-dioxopiperidin-3-yl)-5-(1-((1-(3-((4-((5-(trifluoromethyl)pyrimidin-2-yl)amino)piperidin-1-yl)sulfonyl)phenyl)piperidin-4-yl)methyl)piperidin-4-yl)picolinamide]
CC1(C)C(=O)N(C2CCC(=O)NC2=O)c2cccc(C3CCN(CC4CCN(c5cc(S(=O)(=O)N6CCC(Nc7ncc(Cl)cn7)CC6)ccc5C#N)CC4)CC3)c21 (stereo not shown) [Example 207, 4-((4-((5-chloropyrimidin-2-yl)amino)piperidin-1-yl)sulfonyl)-2-(4-((4-(1-(2,6-dioxopiperidin-3-yl)-3,3-dimethyl-2-oxoindolin-4-yl)piperidin-1-yl)methyl)piperidin-1-yl)benzonitrile]
O=C1CCC(N2Cc3cc(N4CCC(Oc5cccc(S(=O)(=O)N6CCC(Nc7ncc(C(F)(F)F)cn7)CC6)c5)CC4)ccc3C2=O)C(=O)N1 (stereo not shown) [Example 41, 3-(1-ox0-5-(4-(3-((4-((5-(trifluoromethyl)-pyrimidin-2-yl)amino)piperidin-1-yl)sulfonyl)phenoxy)piperidin-1-yl)isoindolin-2-yl)piperidine-2,6-dione]
O=C1CCC(N2Cc3cc(C4CCN(CC5CCN(c6cccc(S(=O)(=O)N7CCC(Nc8ncc(Cl)cn8)CC7)c6)CC5)CC4)c(F)cc3C2=O)C(=O)N1 (stereo not shown) [Example 120, 3-(5-(1-((1-(3-((4-((5-chloropyrimidin-2-yl)amino)piperidin-1-yl)sulfonyl)phenyl)-piperidin-4-yl)methyl)piperidin-4-yl)-6-fluoro-1-oxoisoindolin-2-yl)piperidine-2,6-dione]
Cn1nc(N2CCC(=O)NC2=O)c2ccc(N3CCN(CC4CCN(c5cccc(S(=O)(=O)N6CCC(Nc7ncc(Cl)cn7)CC6)c5)CC4)CC3(C)C)cc21 [Example 159, 1-(6-(4-((1-(3-((4-((5-chloropyrimidin-2-yl)amino)piperidin-1-yl)sulfonyl)phenyl)piperidin-4-yl)methyl)-2,2-dimethylpiperazin-1-yl)-1-methyl-1H-indazol-3-yl)dihydropyrimidine-2,4(1H,3H)-dione]
C[C@H]1CN(CC2CCN(c3cccc(S(=O)(=O)N4CCC(Nc5ncc(Cl)cn5)CC4)c3)CC2)CCN1c1ccc2c(N3CCC(=O)NC3=O)nn(C)c2c1 [Example 117, (S)-1-(6-(4-((1-(3-((4-((5-chloropyrimidin-2-yl)amino)piperidin-1-yl)sulfonyl)phenyl)-piperidin-4-yl)methyl)-2-methylpiperazin-1-yl)-1-methyl-1H-indazol-3-yl)dihydro-pyrimidine-2,4(1H,3H)-dione]
Cn1nc(-n2ccc(=O)[nH]c2=O)c2ccc(C3CCN(CC4CCN(c5cccc(S(=O)(=O)N6CCC(Nc7ncc(Cl)cn7)CC6)c5)CC4)CC3)cc21 [Example 210, 1-(6-(1-((1-(3-((4-((5-chloropyrimidin-2-yl)amino)piperidin-1-yl)sulfonyl)phenyl)piperidin-4-yl)methyl)piperidin-4-yl)-1-methyl-1H-indazol-3-yl)pyrimidine-2,4(1H,3H)-dione]
